Source: USRE38333E1, “Antiviral phosphonomethoxy nucleotide analogs having increased oral bioavailability” (Gilead Sciences, Inc., priority 1996, dated 2003)
Like-named read-outs stand apart in the source and are kept apart here.

Experiments:
[1] = Partition coefficient (Log PC); type: physicochemical
[2] = type: in vitro ADME; conditions: dog intestinal homogenate, 37° C., 20 μg/mL
Method: Dog intestinal segments (jejunum/ileum) were obtained fresh from Pharmakon USA (Waverly, Pa.) and intestinal homogenate was prepared as described for liver. The intestinal homogenates were stored as 1.0 mL aliquots at −70° C.
(§1) Enzymatic stability studies involving plasma and intestinal homogenate were performed with 90% biological fluids.
(§2) One blank (drug free) incubation was performed for each biological fluid. All biological fluid tubes (open) were pre-incubated without PMPA prodrugs in a shaker bath at 37° C. and 100 oscillation/min for 5 minutes. PMPA prodrugs was added to the test incubations (final concentration: 20 μg/mL, mixed and maintained at 37° C. and 100 oscillations/min. Samples (50 μL) were withdrawn at 0, 30, and 60 minutes and the reaction was quenched with 100 μL of 0.1% trifluoroacetic acid (TFA) in acetonitrile. Quenched samples were centrifuged for 5 minutes at 14,000 rpm in an Eppendorf Centrifuge 5402, and the supernatant was used for HPLC analysis.
(§3) For each incubation, the observed rate constant for degradation was calculated by plotting the log of the peak area of PMPA prodrugs versus time of incubation (min). The slope was the observed rate constant (kobs). The half life was calculated according to the following equation: [formula]
(§4) If the observed rate constant for degradation was less than 0.01 min^−1, then t½ was expressed as stable.

[3] = Enzymatic stability in human intestinal homogenate (S9); type: in vitro ADME; conditions: human intestinal homogenate (values in parentheses), 37° C., 20 μg/mL
Method: Human intestinal homogenate (S9) was obtained from Keystone Skin Bank (Exton, Pa.) at concentration of 20 mg protein/mL.
as §1, §2, §3, §4

[4] = type: in vitro ADME; conditions: 37° C., 20 μg/mL
Method: as §1, §2, §3, §4

[5] = Enzymatic stability in dog liver homogenate (S9); type: in vitro ADME; conditions: 37° C., 20 μg/mL
Method: Dog liver was obtained fresh from Pharmakon USA (Waverly, Pa.). Liver homogenate was prepared following a standard protocol. Dog liver was rinsed three times with ice-code 50 mM sodium/potassium phosphate buffer and homogenized with a Tekmar Tissumizer homogenizer (VWR 33995-060). The homogenate was centrifuged at 9000 g (11,000 rpm for Eppendorf Centrifuge 5402; Brinkman Instruments, Westbury, N.Y.) at 4° C. for 20 minutes. The supernatant was designated at the S9 fraction. The concentration of protein in the S9 fraction was determined using a Bio-Rad Protein Assay Kit II, with bovine serum albumin as standard. Esterase activity was determined using o-nitrophenyl butyreate as substrate and activity was calculated based on the increase in absorbance at 420 nm after a 1 min incubation. The homogenates were stored as 1.0 mL aliquots at −70° C.
as §2, §3, §4

[6] = Oral bioavailability of PMPA and PMPA carbonates in beagle dogs; type: in vivo; conditions: for % of PMPA IV (1 mg/kg) AUC: PMPA: 6.2-10 mg eq of PMPA/kg, PMPA in plasma; for % of PMPA IV (1 mg/kg) AUC: Prodrug: intact prodrug in plasma; for % of PMPA IV (1 mg/kg) AUC: Monoester: monoester in plasma; for % of PMPA IV (1 mg/kg) AUC: other: other species in plasma
Method: PMPA (9-[(R)-2-(phosphonomethoxy)propyl]adenine) and PMPA carbonates were examined to determine the effect of dose on the pharmacokinetics of PMPA in beagle dogs, in particular the bioavailability of PMPA following oral administration to beagle dogs.
The intravenous formulations used as standards were isotonic aqueous solutions containing 50 mg/mL PMPA. Compound was added to 10 mL of WFI (water for injection from Abbott Laboratory) and 1N NaOH was added to adjust the pH to 7.4. The solutions were diluted to 15 mL with WFI and sterile filtered with a 0.2 μm filter. The PMPA dose was 10 mg/kg (0.2 mL/kg).
The intravenous formulation for a 1 mg/kg dose was prepared as described above except only 75 mg of PMPA was added to WFI and the final concentration was 5 mg/mL. The dose was 1 mg/kg (0.2 mL/kg). Oral formulations of carbonates were prepared in 20-40% PEG 400/50 mM citric acid and were adjusted to pH 2.2.
Two groups of five adult male beagle dogs were used. The mean body weight at the time of the first does was 9.6±0.4 Kg (range 9.2-10.2). The dogs were fasted 12-18 hours prior to dosing and until 6 hours post-dose. For pentagastrin pretreatment, dogs were given a single intramuscular injection of pentagastrin (Peptavlon 0.25 mg/mL, Ayerst Laboratories, Inc., Philadelphia, Pa.) at a dose of 6 μg/kg, 20 minutes prior to dosing. Water was provided ad lib.
Each formulation was administered as a single dose to five male beagle dogs. Individual vials of each formulation were provided for each animal. The intravenous formulation was administrated via a cephalic vein. The oral suspension was administered by gavage, followed by two 10 mL water washes. At least one week washout period was allowed between administrations.
Blood samples (4.0 mL) were collected by direct jugular access from each animal into heparinized tubes. Animals remained conscious throughout the sample collection period. Blood was processed immediately for plasma by centrifugation at 2000 rpm for 10 minutes. Plasma samples were frozen and maintained at ≦−20° C. until analyzed.
Urine samples were collected over 0-24 and 24-48 hours time periods. Urine samples from 0-24 and 24-48 hours were divided into aliquots and mixed based on the volume collected and analyzed to determine amount of PMPA recovered from urine during 0-48 hours.
PMPA in Plasma and Urine was determined as follows. PMEA (9-(2-phosphono-methoxyethyl)adenine; adefovir) was used as the internal standard for both analyses. The total concentration of PMPA in dog plasma or urine samples was determined by derivatizing PMPA and PMEA with chloroacetaldehyde to yield a highly fluorescent N^1,N^6-ethenoadenine derivative as described (Russell, J. et al. (1991) Determination of 9-[(2-Phosophonylmethoxy)-ethyl]Adenine in Rat Urine by High-Performance Liquid Chromatography with Fluorescence Detection. J. Chromatogr. (Netherlands) 572, 321-326).
Sample Extraction for PMPA in plasma and urine was performed as follows. Plasma (200 μL) and internal standard ([…]) were mixed with 400 μL of acetonitrile containing 0.1% TFA to precipitate protein. Samples were then evaporated to dryness under reduced pressure at room temperature (Savant SpeedVac). Urine samples (20 μL) and internal standard (30 μL of 10 μg/mL PMEA providing a final PMEA concentration of 1.5 μg/mL) were used directly for derivatization without drying.
The samples were derivatized for analysis as follows. Dried plasma samples or urine samples were reconstituted or mixed in 200 μL derivatization cocktail (0.34% chloroacetaldehyde in 100 mM sodium acetate, pH 4.5), vortexed, and centrifuged for 10 minutes at 14,000 rpm in an Eppendorf Centrifuge 5402. Supernatant was then transferred to a clean screw capped tube and incubated at 95° C. for 40 minutes. Derivatized samples were quenched on ice and evaporated to dryness under reduced pressure at room temperature. […]

HIV-1 (IIIB) = experiment: microbe, parasite or virus in culture; type: cell-based; conditions: MT-2 cells; for IC50: read-out: IC50 (50% inhibitory concentration)
From the text: PMPA (9-[(R)-2-(phosphonomethoxy)propyl]adenine) and PMPA carbonates were examined to determine their activity against HIV-1.

[7] = Cytotoxicity in MT-2 cells; type: cell-based; conditions: human
Method: (§5) PMPA (9-[(R)-2-(phosphonomethoxy)propyl]adenine) and PMPA carbonates were examined to determine their activity against HIV-1. The antiviral activity of the carbonates 5a, 5c-g against HIV-1 (IIIB) was determined in MT-2 cells and the IC50 (50% inhibitory concentration) and CC50 (concentration to kill 50% of the cells) values were measured. […] The increased activity can be attributed to increased cellular uptake of the prodrugs followed by effective intracellular conversion to PMPA, which undergoes subsequent phosphorylation to the antivirally active diphosphate metabolite. […] The partition coefficient values support this hypothesis, with all prodrugs being more lipophilic (logP=0.6-3.2) compared to PMPA (logP=−2.5). [drawing 32]

MT-2 cells = experiment: Cytotoxicity in MT-2 cells; type: cell-based; conditions: MT-2 cells; read-out: CC50 (concentration to kill 50% of the cells)
Method: as §5

Structure (SMILES) | Log PC pH 7.4 [1] | Biological t½ (min) (Dog) Intestine [2] | Biological t½ (min) (Human) Intestine [3] | Biological t½ (min) (Dog) Plasma [4] | Biological t½ (min) (Dog) Liver [5] | % of PMPA IV (1 mg/kg) AUC: PMPA [6] | % of PMPA IV (1 mg/kg) AUC: Prodrug [6] | % of PMPA IV (1 mg/kg) AUC: Monoester [6] | % of PMPA IV (1 mg/kg) AUC: other [6] | IC50 (HIV-1 (IIIB); Human immunodeficiency virus 1, MT2, HIV-1 (IIIB)) | SI, Selectivity Index (CC50/IC50) (HIV-1 (IIIB); HIV-1) | CC50 [7] | Urinary Recovery (% as PMPA) ([6]; urine 0-48 hours) | IC50 (HIV-1 (IIIB); HIV-1 (IIIB)) | increased potency compared to PMPA (HIV-1 (IIIB); HIV-1 (IIIB), relative to PMPA) | CC50 (MT-2 cells)
CCCCOC(=O)OCOP(=O)(CO[C@H](C)Cn1cnc2c(N)ncnc21)OCOC(=O)OCCCC [Bis-nBuCOM PMPA, Bis-n-butyl Oxymethyl Carbonate of PMPA] | 2.7 | <5 min | (<5) min | <5 min | <5 min | 17.3 ± 2.57% | – | – | – | – | – | – | – | – | – | –
CCOC(=O)OCOP(=O)(CO[C@H](C)Cn1cnc2c(N)ncnc21)OCOC(=O)OCC [Bis-EtCOM PMPA, Bis-ethyl Oxymethyl Carbonate of PMPA] | 0.6 | 23.3 min | (<5) min | 16.6 min | <5 min | 29.3 ± 3.4% | 0% | −2% | 0% | – | – | – | – | – | – | –
C[C@H](Cn1cnc2c(N)ncnc21)OCP(=O)(OCOC(=O)NC(C)(C)C)OCOC(=O)NC(C)(C)C [Bis-tBuNCOM PMPA] | – | 107.5 min | – | 99.5 min | 166.5 min | 8.86 ± 2.38% | 9.97% | – | – | – | – | – | – | – | – | –
CCOC(=O)OC(C)OP(=O)(CO[C@H](C)Cn1cnc2c(N)ncnc21)OC(C)OC(=O)OCC (stereo partly drawn) [Bis-EtCOE PMPA] | – | 62.4 min | – | 42.6 min | <5 min | – | – | – | – | – | – | – | – | – | – | –
CCCN(CCC)C(=O)OCOP(=O)(CO[C@H](C)Cn1cnc2c(N)ncnc21)OCOC(=O)N(CCC)CCC [Bis-di-n-proNCOM PMPA] | – | Stable (If the observed rate constant for degradation was less than 0.01 min^−1, then t½ was expressed as stable) | – | Stable (If the observed rate constant for degradation was less than 0.01 min^−1, then t½ was expressed as stable) | 76 min | – | – | – | – | – | – | – | – | – | – | –
C[C@H](Cn1cnc2c(N)ncnc21)OCP(=O)(O)O [PMPA, 9-[(R)-2-(phosphonomethoxy)propyl]adenine, reference compound] | – | – | – | – | – | – | – | – | – | 0.5 µM | 500 | 250 µM | – | – | – | –
CC(C)OC(=O)OCOP(=O)(CO[C@H](C)Cn1cnc2c(N)ncnc21)OCOC(=O)OC(C)C [Bis-isopropylCOM PMPA, Bis Isopropyl Oxymethyl Carbonate of PMPA] | 1.25 | 52.6 min | (<5) min | 20.5 min | <5 min | 35.8 ± 14.7% | 0% | 3.1% | 0% | – | – | – | – | – | – | –
C[C@H](Cn1cnc2c(N)ncnc21)OCP(=O)(OCOC(=O)OC(C)(C)C)OCOC(=O)OC(C)(C)C [Bis-t-Bu COM PMPA] | 1.93 | 26.6 min | (<5) min | 21.2 min | 14.9 min | 36.2 ± 6.76% | – | – | – | – | – | – | 34.9% | 0.2 µM | 2.5 fold | 10 µM
CC(C)COC(=O)OCOP(=O)(CO[C@H](C)Cn1cnc2c(N)ncnc21)OCOC(=O)OCC(C)C [Bis-IBu COM PMPA] | 2.0 | 15 min | (<5) min | <5 min | <5 min | 24.5 ± 8.82% | – | – | – | – | – | – | – | – | – | –
